Reference: US10413583B2, “Synthetic substrates for enzymes that catalyze reactions of modified cysteines and related methods” (The University of Chicago, priority 2016, dated 2019)

Tests used:
APT2 = target: T1, APT2 (Homo sapiens, UniProt O95372); assay: In vitro kinetic assays of RDP-1 and RDP-2 with APT2; format: biochemical; details: 1 μM probe, 200 nM enzyme, 20 min
T1 construct: His-tag; made in house; host or cells: E. coli ROSETTA DE3
Method: (§1) 100 μL of 400 nM of APT1 or APT2, or buffer without added enzymes, were added to buffer (20 mM HEPES, 150 mM NaCl, 0.1% Triton X-100, pH 7.4, degassed by bubbling N2 through the solution for 1 h) and prewarmed to 37° C. in a heating block for 5 min. The buffer solutions were then added using a multichannel pipet to a black-walled clear-bottom 96-well plate (Nunc, Roskilde, Denmark) containing 100 μL of 2 μM RDP-1 or RDP-2 in buffer (20 mM HEPES, 150 mM NaCl, 0.1% Triton X-100, pH 7.4, 0.15% DMSO) that had been pre-warmed in the plate reader at 37° C. for 5 min, resulting in a final concentration of 200 nM APT1 or APT2, 1 μM RDP-1 or RDP-2, and 0.1% DMSO. Fluorescent intensities λex1=430/24 nm, λem1=470/24 nm; λex2=480/20, λem2=575/40; gain=75; No. of flashes=8) were obtained as a ratio of em1/em2 in kinetic mode in 30 s intervals for 30 min.

APT1 = target: T2, APT1 (Homo sapiens, UniProt O75608); assay: In vitro kinetic assays of RDP-1 and RDP-2 with APT1; format: biochemical; details: 1 μM probe, 200 nM enzyme, 20 min
T2 construct: His-tag; made in house; host or cells: E. coli ROSETTA DE3
Method: as §1

[1] = Stability of RDP-1 and RDP-2 with biological reductant (GSH); format: physicochemical; details: 1 μM probe, 20 mM GSH, pH 7.4 buffer
Method: RDP-1 or RDP-2 were added to buffer (20 mM HEPES, 150 mM NaCl, 0.1% Triton X-100, pH 7.4, degassed by bubbling N2 through the solution for 1 h) prewarmed to 37° C. in a heating block for 5 min containing no reducing agent or GSH using a multichannel pipet to at least three wells of a black-walled clear-bottom 96-well plate (Nunc, Roskilde, Denmark; Final concentration: 1 μM RDP-1/RDP-2, 20 mM GSH, 20 mM HEPES, 150 mM NaCl, 0.1% Triton X-100, pH 7.4, 4.1% DMSO). Fluorescent intensities (λex1=430/25 nm, λeml=470/24 nm; λex2=480/20, λem2=575/40; gain=75; No. of flashes=10) were obtained as a ratio of em1/em2 in kinetic mode in 30 s intervals for 30 min.

[2] = tested on: catalytically inactive APTs (APT1(S119A), APT2(S122A)); assay: In vitro kinetic assays of RDP-1 and RDP-2 with catalytically inactive enzymes; format: biochemical, human; details: 10 times more APT1(S119A) and APT2(S122A) enzyme
HEK293T cells = assay: Fluorescence imaging of RDP-1 and RDP-2 with HEK293T cells; format: cell-based, human; details: 1 μM probe for 10 min
Method: HEK293T were plated with […] of DMEM (Gibco, Gaithersburg, Md., United States of America; High Glucose, Glutamax, 10% FBS) a four well chambered imaging dish (D35C4-20-1.5-N, Cellvis, Mountain View, Calif., United States of America) which were precoated with 4 μg Poly-D-lysine (30-70 kilodalton (KDa), Alfa Aesar, Haverhill, Mass., United States of America) for 2 h at room temperature or overnight at 4° C. and grown to ca. 80% confluence prior to imaging. 30 min before the addition of the RDP, the cell culture media was removed and cells were washed with 500 μL of serum-free DMEM (Gibco, Gaithersburg, Md., United States of America, High Glucose, Glutamax, no FBS). The media was then replaced with 500 μL of serum-free DMEM containing 100 nM Mitotracker Deep Red (Thermo Fisher Scientific, Waltham, Mass., United States of America; to assist in focusing and processing) and either 0.1% DMSO carrier as a control or Palm B, ML348, or ML349 in DMSO and incubated for 30 min at 37° C. and 5% CO2. The media was removed, the cells were washed with 500 μL of Live Cell Imaging Solution (Thermo Fisher Scientific, Waltham, Mass., United States of America), and 500 μL of 1 μM RDP-1 or RDP-2 along with the appropriate inhibitor or DMSO as control in Live Cell Imaging Solution was added to each well. After incubation for 10 min at 37° C. and 5% CO2, the cells were washed with 500 μL Live Cell Imaging Solution and 500 μL of Live Cell Imaging Solution containing DMSO or the appropriate inhibitor was added to the cells immediately before images were obtained on an inverted epi-fluorescence microscope (Olympus IX83; Olympus Corporation, Tokyo, Japan) attached with EMCCD camera (Photometrics EVOLVE™ Delta; Photometrics, Tucson, Ariz., United States of America) with 40× oil objective (N/A 1.3) for RDP-1 (excitation filter 1 430/24 nm, dichroic chroma 89007, emission filter 1 470/24 nm, exposure time 100 ms, EM gain 80, excitation filter 2 480/20 nm, dichroic chroma 49014, emission filter 2 575/40 nm, exposure time 70 ms, EM gain 50) or for RDP-2 (excitation filter 1 430/24 nm, dichroic chroma 89007, emission filter 1 470/24 nm, exposure time 70 ms, EM gain 50, excitation filter 2 480/20, dichroic chroma 49014, emission filter 2 575/40 nm, exposure time 50 ms, EM gain 30), brightfield (exposure time 50 ms, EM gain 30), and MitoTracker Deep Red: (excitation filter 640/30 nm, emission filter 705/72 nm, dichroic chroma 89016, exposure time 15 ms, EM gain 15). Analyses were performed in ImageJ as described below. Each experiment was repeated at least three separate times with identical results.
The probe channel data were expressed as a ratio of the blue channel divided by the green channel and normalized to the average fluorescence intensity of the control conditions. To eliminate errors from autofluorescence, the images were thresholded using the bluer channel images at the same minimum level that included the maximum number of cells in focus (as determined visually by the mitocondrial dye) while limiting the signal from areas where cells are not present. The average value of all nonzero pixels from the blue channel:green channel ratio image were calculated in ImageJ for three different measurements from each experiment. The percent deprotected was estimated by imaging RDP-1/2 in buffer (20 mM HEPES, 150 mM NaCl, 0.1% Triton X-100, pH 7.4, 0.1% DMSO) and for dye deprotected with 20 mM DTT in buffer (20 mM HEPES, 150 mM NaCl, 0.1% Triton X-100, pH 7.4, 0.1% DMSO) for 1 h at room temperature before aliquoted into individual tubes and stored at −80° C. A fresh aliquot of the solution was thawed for each experiment and diluted to 250 nM (RDP-1) or 500 nM (RDP-2) in buffer (20 mM HEPES, 150 mM NaCl, 0.1% Triton X-100, pH 7.4, 10 mM DTT) and allowed to equilibrate for 30 m before being imaged. […]

T1 sequence (O95372 whole entry): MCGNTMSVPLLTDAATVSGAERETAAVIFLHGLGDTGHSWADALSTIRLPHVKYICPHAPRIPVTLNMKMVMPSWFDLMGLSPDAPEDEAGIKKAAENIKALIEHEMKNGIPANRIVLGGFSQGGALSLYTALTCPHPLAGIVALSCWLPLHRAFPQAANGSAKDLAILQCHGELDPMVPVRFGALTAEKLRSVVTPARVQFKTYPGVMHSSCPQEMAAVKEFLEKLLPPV
T2 sequence (O75608 whole entry): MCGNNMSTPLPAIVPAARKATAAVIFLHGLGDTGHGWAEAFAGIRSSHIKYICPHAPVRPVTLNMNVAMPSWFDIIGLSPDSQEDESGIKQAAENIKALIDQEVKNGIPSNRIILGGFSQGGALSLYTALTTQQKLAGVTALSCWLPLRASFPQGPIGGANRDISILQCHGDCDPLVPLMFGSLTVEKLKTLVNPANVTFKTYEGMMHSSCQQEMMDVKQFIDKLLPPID

Row | Compound | ratio change of ratiometric response (APT2) | ratio change of ratiometric response (APT1) | response to 20 mM glutathione [1] | response to catalytically inactive APTs [2] | depalmitoylation of probe (percent deprotected dye) (HEK293T cells)
1 | CCCCCCCC(=O)SC[C@@H](C(=O)NC)N(C)C(=O)/C(C#N)=C/c1c(C)c2cc3c4c(c2oc1=O)CCCN4CCC3 [RDP-1, (2E)-2-cyano-N-methyl-3-{6-methyl-4-oxo-3-oxa-13-azatetracyclo[7.7.1.0^2,7.0^13,17]heptadeca-1,5,7,9(17)-tetraen-5-yl}-N-[(1R)-1-(methylcarbamoyl)-2-(octanoylsulfanyl)ethyl]prop-2-enamide] | 0.7 to 34 | 0.7 to 34 | Neither RDP-1 nor RDP-2 responds | Neither RDP-1 nor RDP-2 responds | about 28%
2 | CCCCCCCC(=O)SC[C@@H](C(=O)N[C@@H](CCCCN)C(=O)OC)N(C)C(=O)/C(C#N)=C/c1c(C)c2cc3c4c(c2oc1=O)CCCN4CCC3 [RDP-2, (5S)-5-[(2R)-2-[(2E)-2-cyano-N-methyl-3-{6-methyl-4-oxo-3-oxa-13-azatetracyclo[7.7.1.0^2,7.0^13,17]heptadeca-1,5,7,9(17)-tetraen-5-yl}prop-2-enamido]-3-(octanoylsulfanyl)propanamido]-6-methoxy-6-oxohexan-1-aminium] | 1.9 to 16 | 1.9 to 16 | Neither RDP-1 nor RDP-2 responds | Neither RDP-1 nor RDP-2 responds | ~18%
